Experiments:
[1] = Stability of the Pt(IV) compounds in RPMI medium, monitored by HPLC; type: physicochemical; details: pH = 7, 37 °C, HPLC peak area
Description: The stability of the Pt(IV) compounds was measured in RPMI medium, at pH = 7 and 37 °C, by monitoring the peak area of the prodrugs as a function of time.
Pt(IV) complexes were dissolved in 1% DMSO and RPMI medium at pH 7.4, and kept at 37 °C. Stability half-lives, t1/2, were calculated by linear fitting of ln(At/A0) vs time (t), where At and A0 are the integrated peak areas by HPLC […].

[2] = Reduction by 10 equiv of ascorbic acid, monitored by HPLC; type: physicochemical; details: 10 eq. ascorbic acid, pH = 7, 37 °C
Description: To verify that the Pt(IV) prodrugs are activated by reduction, we incubated them with 10 eq. of ascorbic acid at pH = 7 at 37 °C and monitored by HPLC the reduction of the peak of the parent compound as a function of time.
The half-lives (t1/2) of all compounds were obtained after linear fitting of ln(At/A0) vs time (t) by considering a pseudo-first-order rate equation (At = A0e^–kt), where A0 and At are the integrated areas of HPLC peaks of the respective complexes at t = 0 and at time t, respectively, and k (slope) is the rate constant. Then, t1/2 was calculated by utilizing the equation t1/2 = 0.693/k.

mice [3] = assay: Mechanical allodynia, von Frey assay; details: for mechanical allodynia (in words): compared with the untreated mice
Description: (§1) Von Frey, hot plate, acetone evaporation, and ocular aperture ratio studies were carried out in Balb/c mice according to reported methods.[3] […] Final injection volume was 150 μL. Afterward, tests were carried out 1, 2, and 3 weeks post first injection.
8-week-old Balb/c mice were purchased from Envigo (Israel). Pain thresholds were assessed by observing withdrawal responses to mechanical stimulation of the plantar skin by using von Frey filaments. The mice were placed on a grid and allowed to accustom to the new environment for at least half an hour. The hind paw was touched vertically on the plantar surface with the tip of the filament. Once the fiber bends, the force applied is the maximum, making the repetitions reproducible. Hairs calibrated for forces between 0.008 and 2 g were applied 10 times each in ascending order of force at 5 s intervals to both hind paws. Sharp and quick leg withdrawal or immediate jumping in response to a touch with the hairs was considered as a withdrawal response. Paw movements associated with locomotion were not counted as the withdrawal response. The threshold of withdrawal response was defined when 6 out of 10 applications elicited pain responses. each group contained six animals.

[4] = test system: A2780 ovarian carcinoma cells; assay: Antiproliferative MTT assay, 72 h; type: cell-based, human; details: A2780, 72 h treatment
Description: (§4) After 72 h of exposure, the cell biomass was determined by 3-(4,5-dimethylthiazol-2-yl)-2,5-diphenyl tetrazolium bromide (MTT) (Sigma-Aldrich) staining, and the absorptions were calculated as the delta of two measurements of the same well at wavelengths 570 and 690 nm. IC50 values were determined as the concentration that caused 50% inhibition of cell proliferation compared to an untreated control. The results were calculated as the mean values of three independent experiments.
(§5) PC9 human non-small-cell lung carcinoma cells, A375 human malignant melanoma cells, and CT26 WT murine colon carcinoma cells were maintained in DMEM (high glucose, no glutamine/sodium pyruvate) supplemented with L-glutamine solution (4 mM) (2% v/v), 10% (v/v) heat-inactivated fetal bovine serum (South American origin, European grade), and 1% (v/v) penicillin–streptomycin solution (containing penicillin G sodium salt: 10 000 units/mL and streptomycin sulfate: 10 mg/mL) and were passaged twice a week.

[5] = test system: A2780cisR cisplatin-resistant ovarian carcinoma cells; assay: Antiproliferative MTT assay, 72 h; type: cell-based, human; details: 72 h treatment
Description: as §4, §5

A375 melanoma cells = assay: Antiproliferative MTT assay, 72 h; type: cell-based, human
Description: as §4, §5

[6] = test system: PC9 non-small-cell lung cancer cells; assay: Antiproliferative MTT assay, 72 h; type: cell-based, human; details: PC9, 72 h treatment
Description: as §4, §5

[7] = test system: CT26 murine colon cancer cells; assay: Antiproliferative MTT assay, 72 h; type: cell-based; details: CT26, 72 h treatment
Description: as §4, §5

all cancer cell lines = assay: Antiproliferative MTT assay, summary over the panel; type: cell-based; details: all cancer cell lines of the panel, 72 h
Description: as §4

[8] = test system: murine CT26 colon cancer model; assay: In vivo inhibition of tumor growth; details: CT26 s.c. in BALB/c mice, i.p. every other day up to 4 doses, equimolar: cisplatin 3, paclitaxel 8.5, combination 3 + 8.5, cisPt(Pac)(OH) and its micelles 12 mg/kg
[9] = Platinum accumulation in organs and tumor by ICP-MS (CT26 study); type: in vivo, mice; details: ICP-MS at end of the CT26 experiment
Description: Four-week-old female BALB/cAnNTac mice weighing 16–18 g were purchased from InVivos (Singapore). The animals were housed in Comparative Medicine (CM)-holding units at the National University of Singapore in a pathogen-free environment at constant temperature in a 12/12 h light/dark cycle environment. The mice were acclimatized for 3 days and given access to food and water ad libitum. The mouse colon carcinoma cells CT26 (1 × 10^5 cells in 100 μL of sterile PBS) were subcutaneously injected into the right flank of the mice. The administration of tested compounds was started when tumors became palpable (volume of ∼30 mm^3) on day 13. Subsequently, the animals were separated into 5 groups (n = 6 each) and injected i.p. with different compounds every other day up to 4 doses. Control mice were injected ip with 100 μL of sterile saline. The animals were controlled for pain and/or distress development, and the body weight and tumor size were closely monitored. All animals were alert and responsive during the whole experiment. The mice were euthanized when the diameter of the tumor reached 1.5 cm or upon development of ulceration. The tumor and organs (liver, kidney, and spleen) were collected […].
(§2) Samples were weighed and mineralized with highly pure 70% nitric acid (Pt: ≤0.01 μg kg^–1, TraceSELECT Ultra, Sigma Chemical Co.) for 3 h. Afterward, solutions were completely dried at 110 °C and 1000 μL of 1% HNO3 was added. The platinum content of each sample was measured by ICP-MS. The calibration curve was obtained using known concentrations of standard solutions purchased from Sigma Chemical Co.

kidney = details: mouse, in vivo
Text: At the end of the experiments, mice were euthanized, and the tumor, spleen, liver, and kidneys were isolated and analyzed in terms of platinum content by ICP-MS (Figure 4F).
All of the kidney (left kidney) samples were flash-frozen immediately after weighing for cryosections for the histopathological evaluation using H&E staining technique. The tissues were embedded in the OCT compound and 10 μm thick sections were cut and placed onto glass slides using the Leica CM3050 S Cryostat. The slides were dried in a desiccator for approximately 1 h before rinsing in water. Sections are ready for staining immediately after rinse. The slides were stained with H&E (Hematoxylin and eosin) using Leica Autostainer XL. Then, the slides were dehydrated through ascending series of ethanol to xylene before being coverslipped using Leica Coverslipper CV5030. The slides were imaged using the LABOMED Opti CX biological microscope. At least two sections of each kidney sample were stained and 5–10 images were taken for each section under 10× and 40× magnifications. The images were analyzed for histopathological changes by two pathologists in a blinded manner.

mice [10] = assay: Ongoing pain, eye-closing ratio; type: in vivo; details: i.p. days 1, 3, 5
Description: Finally, we assessed whether the treatment with cisPt(OAc)2 or cisPt(Pac)(OH) prevents chemotherapy-induced ongoing pain, by assessing the eye-closing ratio.[53]−[55] The eye-closing ratio test was carried out prior to conducting the induced pain experiments. The eye-closing ratio was obtained by dividing the distance between the edges of the upper and lower eyelids by the length of the canthus (horizontal distance across the eye), where a value of 0 was given to completely closed eyes (indicating pain), and a value of 1 was given to fully open eyes (lack of pain).
as §1
The raw data for the ongoing pain was obtained by taking 3–5 photographs of each of the awake (not immobilized) mice and used such that the position of the eyelids in relation to the eye was clearly visible. The data were analyzed in a blind fashion by using the imaging software, ImageJ, to measure the length between the internal and external canthus (x) and the distance between the edge of the upper and lower eyelids (y). Finally, the ratio of y/x was calculated, and a value between 0 and 1 was obtained for each photo, where 0 is equivalent to the eye completely closed and 1 is equivalent to the eye completely open. The values obtained were an average of the values of the six animals in each group.

[11] = Body weight changes in the CT26 efficacy study (general toxicity); type: in vivo, mice; details: i.p., equimolar doses
Description: Four-week-old female BALB/cAnNTac mice weighing 16–18 g were purchased from InVivos (Singapore). The animals were housed in Comparative Medicine (CM)-holding units at the National University of Singapore in a pathogen-free environment at constant temperature in a 12/12 h light/dark cycle environment. The mice were acclimatized for 3 days and given access to food and water ad libitum. The mouse colon carcinoma cells CT26 (1 × 10^5 cells in 100 μL of sterile PBS) were subcutaneously injected into the right flank of the mice. The administration of tested compounds was started when tumors became palpable (volume of ∼30 mm^3) on day 13. Subsequently, the animals were separated into 5 groups (n = 6 each) and injected i.p. with different compounds every other day up to 4 doses. Control mice were injected ip with 100 μL of sterile saline. The animals were controlled for pain and/or distress development, and the body weight and tumor size were closely monitored. […] The mice were euthanized when the diameter of the tumor reached 1.5 cm or upon development of ulceration.

mice [12] = type: in vivo; details: acetone test; compared with cisplatin, paclitaxel, or their 1:1 co-administration
Description: (§3) The sensitivity to noxious heat was assessed by placing the mice on a hot plate (54 ± 1 °C) and measuring the latency (s), the time until the mice began licking their paws, shaking, or jumping to avoid the heat.
as §1
The test was carried out on a mesh floor, and acetone was dabbed on the plantar surface of the hind paw. Sensitivity to cold was recorded by the duration of nocifensive responses such as brisk withdrawal, flick of the paw, repeated flicking of the paw, repeated flicking of the hind paw, and licking of the paw. each group contained six animals.

mice [13] = type: in vivo; details: hot plate 54 ± 1 °C; compared with cisplatin, paclitaxel, or their 1:1 co-administration
Description: as §3, §1
Unrestrained mouse was placed on a metal surface that was maintained at a constant temperature (54 ± 1 °C) and the response latency, which is the time taken to observe a nocifensive behavior, was recorded. These behaviors include fore paw withdrawal or licking, hind paw withdrawal or licking, stamping, leaning posture, and jumping. each group contained six animals. If no nocifensive behaviors were observed, the animals were removed from the hot plate after 30 s to prevent tissue damage.

[14] = Platinum accumulation in the DRG by ICP-MS; type: in vivo, mice; details: day 7 after injections on days 1, 3, 5
Description: To explore whether the differences in the behavioral tests between cisplatin, cisplatin + paclitaxel, and cisPt(Pac)(OH) correlate with platinum accumulation in the DRG, we quantified the platinum in the DRG.
Afterward, on days 7–10, animals from each group were anesthetized using isoflurane and decapitated. Thereafter, DRG were removed and placed in DDW at room temperature.
as §2

| Compound | t1/2 RPMI 1640 [1] | t1/2 10 equiv Asc [2] | IC50 [4] | IC50 [5] | IC50 (A375 melanoma cells; A375, 72 h treatment) | IC50 [6] | IC50 [7] | IC50 values (in words) (all cancer cell lines) | Inhibition of Tumor Growth (TGI) [8] | levels of Pt in the kidneys [9] | platinum levels in the tumor [9] | mechanical allodynia (in words) (mice [3]; von Frey) | ongoing (spontaneous) pain (mice [10]) | cold allodynia (mice [12]) | thermal hyperalgesia (mice [13]) | other results |
| --- | --- | --- | --- | --- | --- | --- | --- | --- | --- | --- | --- | --- | --- | --- | --- | --- |
| CC(=O)[O][Pt]1([O]C(C)=O)[O]C(=O)C(=O)[O]1.NC1CCCCC1N [Oxali(OAc)2] | 742 h | 63 h | – | – | – | – | – | – | – | – | – | – | – | – | – | neuropathic pain by withdrawal thresholds to mechanical stimuli (mice [3]; male and female mice, 5.19 mg/kg i.p. days 1, 3, 5): did not induce neuropathic pain |
| N.N.[Cl][Pt][Cl] [cisplatin] | – | – | 1180 ± 130 nM | 16200 ± 3140 nM | 1910 ± 620 nM | 5290 ± 1750 nM | 5890 ± 1190 nM | low μM | 41% | high levels of Pt | rather similar | persistent reduction in the withdrawal threshold | substantial spontaneous pain | – | – | histopathological changes of the kidney tubules (kidney): focal tubular necrosis; reduction of withdrawal threshold (mice [3]; von Frey, compared with untreated mice): about 95% |
| CC(=O)O[C@H]1C(=O)[C@@]2(C)[C@H]([C@H](OC(=O)c3ccccc3)[C@]3(O)C[C@H](OC(=O)[C@H](O)[C@@H](NC(=O)c4ccccc4)c4ccccc4)C(C)=C1C3(C)C)[C@]1(OC(C)=O)CO[C@@H]1C[C@@H]2O [paclitaxel] | – | – | – | – | – | – | – | low nM | 27% | – | – | persistent reduction in the withdrawal threshold | substantial spontaneous pain | – | – | IC50 ([4]; Homo sapiens): 2.2 ± 1 nM; IC50 ([5]; Homo sapiens): 3 ± 1 nM; IC50 (A375 melanoma cells; Homo sapiens, A-375, A375, 72 h treatment): 14 ± 4 nM; IC50 ([6]; Homo sapiens): 4.5 ± 2 nM; IC50 ([7]; Mus musculus): 384 ± 109 nM |
| ctc-[Pt(NH3)2(Pac)(OH)Cl2] [cisPt(Pac)(OH)] | 35 h | 0.16 h | 4.5 ± 2 nM | 5.9 ± 0.1 nM | 18 ± 3 nM | 6 ± 1 nM | 406 ± 106 nM | low nM | 65% | much lower levels | rather similar | – | did not induce any ongoing pain | significantly reduced cold allodynia | significantly reduced | body weight loss compared to the control [11]: did not exhibit any substantial weight loss; kidney toxicity (creatinine and histopathology) (kidney): lower kidney toxicity; platinum levels in the DRG [14]: lower than after treatment with cisplatin or the co-treatment with cisplatin and paclitaxel |
| CC(=O)[O][Pt]([Cl])([Cl])[O]C(C)=O.N.N [cisPt(OAc)2] | 120 h | 7.8 h | – | – | – | – | – | – | – | – | – | – | did not induce any ongoing pain | significantly reduced cold allodynia | significantly reduced | – |

From PMC11770746 (Journal of Medicinal Chemistry, 2025)
